Laboratory results taken from patent US20220257774A1, “AROMATIC AMINE AR AHD BET TARGETING PROTEIN DEGRADATION CHIMERA COMPOUND AND USE” (HINOVA PHARMACEUTICALS INC., priority 2019, published 2022).
Where two headings read alike, the source gives them in different places.

Test system: LNCaP/AR cells
Test: Inhibition of the proliferation of LNCap/AR cells (CCK-8)
Type: cell-based
Conditions: read-out: LNCap/AR IC50
Text: 1. Biological Assay of the Inhibition on the Proliferation of LNCap/AR Cells
(1) Experimental materials and instruments: LNCaP/AR cell line and 22RV1 cell line (provided by Sichuan Kangcheng Biotechnology Co., Ltd.) Fetal bovine serum FBS (Gibco, Cat. No. 10099-141) 0.01M PBS (Biosharp, Cat. No. 162262) RIPM1640 medium (Hyclone, Cat. No. 308090.01) Penicillin-Streptomycin (Hyclone, Cat. No. SV30010) Cell counting kit-8 (Signalway Antibody, Cat. No. CP002) DMSO (Sigma, Cat. No. D5879) Centrifuge Tube, 15 ml (Excell Bio, Cat. No. CS015-0001) Cell Culture Dish, (Excell Bio, Cat. No. CS016-0128) 96-well cell culture plate (Corning, Cat. No. 3599) Microplate reader (Thermo Multiskan MK3 type)
(2) Experimental Methods:
a. Preparation of Buffer Cell culture medium: RIPM1640 medium, 10% FBS, 1% Pen Strep: PBS buffer: PBS powder was dissolved in 2 L of ultrapure water and sterilized. b. Experimental Procedures 1) LNCaP/AR cells were subcultured in cell culture media, and then the cells in good growth condition were seeded in a 96-well plate at 80 μL/well (1000 cells/well), and cultured overnight in a 37° C., 5% CO2 cell incubator. 2) The drug was prepared into a 10 mM stock solution with dimethyl sulfoxide (DMSO). Prior to use, the stock solution was diluted in a ratio of […] with DMSO, and then diluted at a 3-fold gradient to obtain 9 serial concentrations. Then, each concentration of compound was further diluted in a ratio of 1:200 with the culture medium (to ensure that the DMSO concentration in the culture system was 0.1%), and two wells were set for each concentration. 20 μL of the diluted compound solution was added to the well of the cell culture (with a final concentration of 10 μM, 3.3 μM, 1.1 μM . . . ), and then the plate was gently tapped to thoroughly mix. In addition, the experiment included 3 negative control wells only containing cells and 3 blank control wells only containing culture medium (6 wells were each added with DMSO diluted in a ratio of 1:200 with 20 μL of culture medium). c. Result Detection: 1) After culturing for 6 days, 10 μL of CCK-8 was added to each well, and the plate was further incubated for 1 h in a 37° C., 5% CO2 cell incubator. 2) The absorbance (OD value) was measured at 450 nm with a multifunctional microplate reader. 3) The data was analyzed by the Dose-response-inhibition equation in the software GraphPad Prism5, and the IC50 value was obtained. 2. Biological assay of the inhibition on the proliferation of other drug-resistant prostate cancer cells

[1] = 144 h, LNCaP/AR cells, 6 days culture, CCK-8

| Structure (SMILES) | IC50 [1] | other results |
| --- | --- | --- |
| CC(=O)O[C@@H]1C[C@@H](C(=O)N[C@@H](C)c2ccc(-c3scnc3C)cc2)N(C(=O)[C@@H](NC(=O)COCCCCCN(c2ccc(-n3cnnc3)cc2)c2cc(-c3c(C)noc3C)ccc2C)C(C)(C)C)C1 [Compound 94] | 101 to 500 nM |  |
| Cc1ccc(-c2c(C)noc2C)cc1N(CCCCCOCC(=O)N[C@H](C(=O)N1C[C@H](O)C[C@H]1C(=O)N[C@@H](C)c1ccc(-c2scnc2C)cc1)C(C)(C)C)c1ccc(-n2cncn2)cc1 [Compound 91, (2S,4R)-1-((S)-2-(2-((5-((4-(1H-1,2,4-triazol-1-yl)phenyl)(5-(3,5-dimethylisoxazol-4-yl)-2-methylphenyl)amino)pentyl)oxy)acetylamino)-3,3-dimethylbutyryl)-4-hydroxy-N—((S)-1-(4-(4-methylthiazol-5-yl)phenyl)ethyl)-pyrrolidinyl-2-formamide] | 101 to 500 nM |  |
| Cc1ccc(-c2c(C)noc2C)cc1N(CCCCCOCC(=O)N[C@H](C(=O)N1C[C@H](O)C[C@H]1C(=O)N[C@@H](C)c1ccc(-c2scnc2C)cc1)C(C)(C)C)c1ccc(C#N)c(Cl)c1 [Compound 58] |  | IC50 (LNCaP/AR, 144 h): 101 to 500 nM |
| Cc1ccc(-c2c(C)noc2C)cc1N(CCCCCOCC(=O)N[C@H](C(=O)N1C[C@H](O)C[C@H]1C(=O)N[C@@H](C)c1ccc(-c2scnc2C)cc1)C(C)(C)C)c1ccc(-n2ccnc2)c(F)c1 [Compound 14, (2S,4R)-1-((S)-2-(2-((5-((3-fluoro-4-(1H-imidazol-1-yl)phenyl)(5-(3,5-dimethylisoxazol-4-yl)-2-methylphenyl)amino)n-pentyl)oxy)acetylamino)-3,3-dimethylbutyryl)-4-hydroxy-N—((S)-1-(4-(4-methylthiazol-5-yl)phenyl)ethyl)pyrrolidinyl-2-formamide] | > 2000 nM |  |
| Cc1ccc(-c2c(C)noc2C)cc1N(CCCCCOCC(=O)N[C@H](C(=O)N1C[C@H](O)C[C@H]1C(=O)N[C@@H](C)c1ccc(-c2scnc2C)cc1)C(C)(C)C)c1ccc(-n2ccnc2)cc1 [Compound 83, (2S,4R)-1-((S)-2-(2-((5-((4-(1H-imidazol-1-yl)phenyl)(5-(3,5-dimethylisoxazol-4-yl)-2-methylphenyl)amino)pentyl)oxy)acetylamino)-3,3-dimethylbutyryl)-4-hydroxy-N—((S)-1-(4-(4-methylthiazol-5-yl)phenyl)ethyl)-pyrrolidinyl-2-formamide] |  | IC50 (LNCaP/AR cells, 6 days culture, CCK-8): < 100 nM |
| CC(=O)O[C@@H]1C[C@@H](C(=O)N[C@@H](C)c2ccc(-c3scnc3C)cc2)N(C(=O)[C@@H](NC(=O)COCCCCCN(c2ccc(-n3ccnn3)c(Br)c2)c2cc(-c3c(C)noc3C)ccc2C)C(C)(C)C)C1 [Compound 20, (3R,5S)-1-((S)-2-(2-((5-((3-bromo-4-(1H-1,2,3-triazol-1-yl)phenyl)(5-(3,5-dimethylisoxazol-4-yl)-2-methylphenyl)amino)pentyl)oxy)acetamido)-3,3-dimethylbutyryl)-5-((S)-1-(4-methylthiazol-5-yl)phenyl)ethyl)carbamoyl)pyrrolidine-3-yl acetate] | < 100 nM |  |

Continued, in another order:

| IC50 [1] | Structure (SMILES) | other results |
| --- | --- | --- |
| 501 to 2000 nM | Cc1ccc(-c2c(C)noc2C)cc1N(CCCCCNc1cc2c(cc1F)C(=O)N(C1CCC(=O)NC1=O)C2=O)c1ccc(C2(C#N)CC2)cc1 (centres unmarked) [Compound 148, 1-(4-((5-(3,5-Dimethylisoxazol-4-yl)-2-methylphenyl)(5-((2-(2,6-dioxopiperidin-3)-6-fluoro-1,3-dicarbonylisoindolin-5))amino)pentyl)amino)phenylcyclopropanecarbonitrile] |  |
| 501 to 2000 nM | Cc1ncc(-c2c(C)noc2C)cc1N(CCCCCOCC(=O)N[C@H](C(=O)N1C[C@H](O)C[C@H]1C(=O)N[C@@H](C)c1ccc(-c2scnc2C)cc1)C(C)(C)C)c1ccc(-n2ccnc2)c(Br)c1 [Compound 49, (2S,4R)-1-((S)-2-(2-((5-((3-bromo-4-(1H-imidazol-1-yl)phenyl)(5-(3,5-dimethylisoxazol-4-yl)-2-methylpyridin-3-yl)amino)pentyl)oxy)acetamido)-3,3-dimethylbutyryl)-4-hydroxy-N—((S)-1-(4-(4-methylthiazol-5-yl)phenyl)ethyl)pyrrolidine-2-formamide] |  |
